The values that follow come from patent US20220033363A1, “HERBICIDALLY ACTIVE SUBSTITUTED PHENYLPYRIMIDINE HYDRAZIDES” (Bayer Aktiengesellschaft, priority 2018, published 2022).

Format in all cases: in vivo
In experiment [1] the test system is harmful plants. Briefly: Herbicidal pre-emergence action (Method B), summary statement. Conditions: summary of tables B1-B12 (Method B). The text has this:
(§1) Method B: Herbicidal Pre-Emergence Action Seeds of mono- and dicotyledonous weed plants are placed in plastic pots in sandy loam soil (doubly sown with one species each of mono- or dicotyledonous weed plants per pot) and covered with soil. The compounds of the invention, formulated in the form of wettable powders (WP) or as emulsion concentrates (EC), are then applied onto the surface of the covering soil as aqueous suspension or emulsion with addition of 0.5% additive at a water application rate equivalent to 600 liters per hectare. After the treatment, the pots are placed in a greenhouse and kept under good growth conditions for the trial plants. After about 3 weeks, the effect of the preparations is scored visually in comparison with untreated controls as percentages. For example, 100% action=the plants have died, 0% action=like control plants.

The test system of experiment [2] is Echinochloa crus-galli. Briefly: Herbicidal pre-emergence action (Method B) against ECHCG. The conditions noted are these: 504 h, scored visually after about 3 weeks vs untreated controls.
Description: as §1

In experiment [3] the test system is Echinochloa crus-galli. Kind of experiment: Herbicidal post-emergence action (Method A) against ECHCG. The conditions noted are these: rated visually after about 3 weeks vs untreated controls; for pest or weed control at 1280 g/ha: Echinochloa crus-galli, post-emergence, 504 h. The method, then:
(§2) Method A: Herbicidal Post-Emergence Action Seeds of mono- and dicotyledonous weed plants are placed in plastic pots in sandy loam soil (twin sowing with one species each of mono- or dicotyledonous weed plants per pot), covered with soil and cultivated in a greenhouse under controlled growth conditions. 2 to 3 weeks after sowing, the test plants are treated at the one-leaf stage. The compounds of the invention, formulated in the form of wettable powders (WP) or as emulsion concentrates (EC), are applied to the green parts of the plants as aqueous suspension or emulsion with addition of 0.5% additive at a water application rate equivalent to 600 liters per hectare. After the test plants have been kept in the greenhouse under optimum growth conditions for about 3 weeks, the activity of the preparations is rated visually in comparison to untreated controls. For example, 100% activity=the plants have died, 0% activity=like control plants.

The subject of experiment [4] is Lolium rigidum. Briefly: Herbicidal pre-emergence action (Method B) against LOLRI. The conditions noted are these: 504 h, scored visually after about 3 weeks vs untreated controls.
Description: as §1

Experiment [5] deals with Stellaria media. Kind of experiment: Herbicidal post-emergence action (Method A) against STEME. The conditions noted are these: 504 h, rated visually after about 3 weeks vs untreated controls. The method, then: as §2
For experiment [6], the system named is Matricaria inodora. Briefly: Herbicidal pre-emergence action (Method B) against MATIN. Conditions: Tripleurospermum inodorum, 504 h, scored visually after about 3 weeks vs untreated controls.
Description: as §1

Experiment [7] has as its system Stellaria media. Briefly: Herbicidal pre-emergence action (Method B) against STEME. Conditions: 504 h; for pest or weed control at 320 g/ha: dosage 320 g/ha; for pest or weed control at 1280 g/ha: dosage 1280 g/ha.
Description: as §1

Experiment [8] deals with Poa annua. Briefly: Herbicidal post-emergence action (Method A) against POAAN. Conditions: 504 h, rated visually after about 3 weeks vs untreated controls; for pest or weed control at 320 g/ha: read-out: Post-emergence action at 320 g/ha against POANN; for pest or weed control at 1280 g/ha: read-out: Post-emergence action at 1280 g/ha against POANN. On the procedure: as §2

Experiment [9] relates to Poa annua. Kind of experiment: Herbicidal pre-emergence action (Method B) against POAAN. Conditions: 504 h, scored visually after about 3 weeks vs untreated controls.
Description: as §1

Experiment [10] has as its system Lolium rigidum. Kind of experiment: Herbicidal post-emergence action (Method A) against LOLRI. The conditions noted are these: rated visually after about 3 weeks vs untreated controls; for pest or weed control at 1280 g/ha: Lolium rigidum, post-emergence, 504 h. The method, then: as §2
Experiment [11] deals with Setaria viridis. Kind of experiment: Herbicidal pre-emergence action (Method B) against SETVI. Conditions: 1280 g/ha, scored visually after about 3 weeks vs untreated controls.
Description: as §1

Experiment [12] concerns Amaranthus retroflexus. Kind of experiment: Herbicidal post-emergence action (Method A) against AMARE. The conditions noted are these: rated visually after about 3 weeks vs untreated controls. On the procedure: as §2
Experiment [13] relates to Matricaria inodora. Kind of experiment: Herbicidal post-emergence action (Method A) against MATIN. Conditions: 1280 g/ha; rated visually after about 3 weeks vs untreated controls. The method, then: as §2
Experiment [14] relates to Abutilon theophrast. Kind of experiment: Herbicidal pre-emergence action (Method B) against ABUTH. The conditions noted are these: 1280 g/ha, scored visually after about 3 weeks vs untreated controls.
Description: as §1

Each structure is given as a SMILES string.

`NNC(=O)c1nc(C2CC2)ncc1-c1ccccc1Cl` [Example I-497, 5-(2-chlorophenyl)-2-cyclopropylpyrimidine-4-carbohydrazide]: the “herbicidal efficacy against harmful plants in pre-emergence treatment” value in experiment [1] was “good herbicidal efficacy”. Besides, the pest or weed control at 320 g/ha in experiment [2] was found to be 100%; in [4], 90%; in experiment [5] it was 100%; in experiment [6], 100%; in experiment [7] it was 100%; in experiment [8], 100%. In addition, the pest or weed control at 320 g/ha in experiment [9] came out at 100%. For the same molecule, the pest or weed control at 1280 g/ha in experiment [2], in experiment [3], in experiment [4], in experiment [5], in experiment [6] and in [7] was 100% throughout. For the same molecule, the pest or weed control at 1280 g/ha in experiment [8], in experiment [9] and in experiment [10] was 100% each time. In addition, in [11], the “Pre-emergence action against SETVI” value is listed as 90%.

As for `O=C(NNC(=O)c1nc(C2CC2)ncc1-c1ccccc1Cl)c1ccccn1` [Example I-527, 5-(2-chlorophenyl)-2-cyclopropyl-N′-(pyridin-2-ylcarbonyl)pyrimidine-4-carbohydrazide], in experiment [12], the “Post-emergence action at 1280 g/ha against AMARE” value was determined as 100%. The pest or weed control at 320 g/ha in [2] worked out at 90%; in experiment [4], 90%; in [5], 100%; in experiment [7], 100%; in experiment [8], 100%; in experiment [9] it was 100%. Besides, the pest or weed control at 1280 g/ha in experiment [2] stood at 100%; in experiment [3], 90%; in experiment [4], 100%; in [5], 100%; in experiment [7], 100%; in [8], 100%. Besides, the pest or weed control at 1280 g/ha in [9] and in [10] was 100% each time. For the same molecule, the “Post-emergence action at 1280 g/ha against MATIN” value in [13] is reported as 90%. Besides, the “Pre-emergence action against ABUTH” value in experiment [14] is on record as 90%. Besides, in experiment [10], the “Post-emergence action at 320 g/ha against LOLRI” value was determined as 100%.

For `CCNC(=O)NNC(=O)c1nc(C2CC2)ncc1-c1ccccc1Cl` [Example I-552, 2-{[5-(2-chlorophenyl)-2-cyclopropylpyrimidin-4-yl]carbonyl}-N-ethylhydrazinecarboxamide], the pest or weed control at 1280 g/ha in [2] was found to be 90%; in experiment [3], 100%; in [4] it was 90%; in experiment [5], 100%; in experiment [6], 100%; in experiment [7], 100%. Also, the pest or weed control at 1280 g/ha worked out at 100% in experiment [8], 100% in [9] and 90% in [10]. In addition, in experiment [13], the “Post-emergence action at 1280 g/ha against MATIN” value is recorded as 90%. Moreover, the “Post-emergence action at 320 g/ha against ECHCG” value in experiment [3] (320 g/ha) is listed as 90%. Further, the pest or weed control at 320 g/ha amounted to 90% in experiment [4]; 90% in experiment [6]; 100% in experiment [7]; 100% in [8]; 100% in [9]. The “Pre-emergence action against ABUTH” value in experiment [14] is listed as 90%. The “Post-emergence action at 320 g/ha against LOLRI” value in experiment [10] is given as 90%.
